# Source: patent publication US20050228180A1, “Alpha, omega-dicarboximide derivatives as useful uro-selective a1a adrenoceptor blockers” (priority 2002, published 2005)
# Structures can show the parent of a compound that is named as a salt.
# What was measured:
# [1] = biological target: T1, α1A adrenoceptor (Rattus norvegicus, UniProt P43140); experiment: Radioligand binding, [3H] prazosin displacement, rat submaxillary membranes; details: for Ki: [3H] prazosin displacement, rat submaxillary membranes, read-out: Affinity (Ki) α1A (Rat Submaxillary); for α1B/α1A: ratio of binding affinities, rat liver / rat submaxillary
# T1 construct: from tissue; host or cells: rat submaxillary gland membranes
# T1 sequence (P43140 1-466): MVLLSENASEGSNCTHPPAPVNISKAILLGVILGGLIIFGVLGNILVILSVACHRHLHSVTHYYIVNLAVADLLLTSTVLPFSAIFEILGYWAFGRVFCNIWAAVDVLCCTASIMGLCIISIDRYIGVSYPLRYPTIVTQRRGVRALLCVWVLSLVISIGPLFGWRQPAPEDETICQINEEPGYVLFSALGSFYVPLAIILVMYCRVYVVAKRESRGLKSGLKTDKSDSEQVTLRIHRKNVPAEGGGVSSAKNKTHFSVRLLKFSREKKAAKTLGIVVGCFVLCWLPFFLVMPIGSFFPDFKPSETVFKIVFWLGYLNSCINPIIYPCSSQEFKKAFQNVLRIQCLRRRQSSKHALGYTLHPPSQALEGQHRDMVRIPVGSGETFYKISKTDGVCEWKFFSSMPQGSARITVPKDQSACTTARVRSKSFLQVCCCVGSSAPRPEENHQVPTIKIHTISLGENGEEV
# Procedure: (§1) Receptor binding assays were performed using native a-adrenoceptors. The affinity of different compounds for α1A and α1B adrenoceptor subtypes was evaluated by studying their ability to displace specific [^3H] prazosin binding from the membranes of rat submaxillary and liver respectively (Michel et al., Br J Pharmacol, 1989: 98:883). The binding assays were performed according to U+Prichard et al. (Eur J Pharmacol, 1978; 50:87 with minor modifications.
# (§2) Submaxillary glands were isolated immediately after sacrifice. The liver was perfused with buffer (Tris HCl 50 mM, NaCl 100 mM, 10 mM EDTA pH 7.4). The tissues were homogenised in 10 volumes of buffer (Tris HCl 50 mM, NaCl 100 mM, 10 mM EDTA pH 7.4). The homogenate was filtered through two layers of wet gauge and filtrate was centrifuged at 500 g for 10 min. The supernatant was subsequently centrifuged at 40,000 g for 45 min. The pellet thus obtained was resuspended in the same volume of assay buffer (Tris HCl 50 mM, 5 mM EDTA pH 7.4) and was stored at −70° C. until the time of assay.
# (§3) The membrane homogenates (150-250 μg protein) were incubated in 250 μl of assay buffer (Tris HCl 50 mM, EDTA 5 mM, pH 7.4) at 24-25° C. for 1 hour. Non specific binding was determined in the presence of 300 nM prazosin. The incubation was terminated by vacuum filtration over GF/B fibre filters. The filters were then washed with ice cold 50 mM Tris HCl buffer (pH 7.4). The filtermats were dried and bound radioactivity retained on filters was counted. The IC50 and Kd were estimated by using the non-linear curve-fitting program using G Pad Prism software. The value of inhibition constant Ki was calculated from competitive binding studies by using Cheng & Prusoff equation (Cheng & Prusoff, Biochem Pharmacol, 1973, 22: 3099-3108), Ki=IC50/(1+L/Kd) where L is the concentration of [^3H] prazosin used in the particular experiment (Table 1).
# [2] = biological target: T2, α1B adrenoceptor (Rattus norvegicus, UniProt P15823); experiment: Radioligand binding, [3H] prazosin displacement, rat liver membranes; details: read-out: Affinity (Ki) α1B (Rat Liver)
# T2 construct: from tissue; host or cells: rat liver membranes
# T2 sequence (P15823 1-515): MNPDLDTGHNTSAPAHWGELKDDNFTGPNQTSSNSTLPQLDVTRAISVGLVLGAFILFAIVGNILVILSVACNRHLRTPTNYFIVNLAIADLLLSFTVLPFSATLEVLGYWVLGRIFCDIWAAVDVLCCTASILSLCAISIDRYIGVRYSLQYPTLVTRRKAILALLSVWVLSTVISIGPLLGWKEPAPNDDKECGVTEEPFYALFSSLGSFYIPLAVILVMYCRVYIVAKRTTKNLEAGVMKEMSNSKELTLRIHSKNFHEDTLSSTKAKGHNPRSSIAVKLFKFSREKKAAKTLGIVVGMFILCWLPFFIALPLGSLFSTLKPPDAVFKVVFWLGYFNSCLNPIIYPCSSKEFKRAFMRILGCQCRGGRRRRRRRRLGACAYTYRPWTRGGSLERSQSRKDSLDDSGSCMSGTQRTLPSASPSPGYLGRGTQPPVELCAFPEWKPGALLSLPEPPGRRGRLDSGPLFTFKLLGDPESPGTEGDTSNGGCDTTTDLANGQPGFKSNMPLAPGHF
# Procedure: as §1, §2, §3
Compound,Ki [1],α1B/α1A [1],Ki [2],α1B/α1A ([1]; hydrochloride)
"Cl.O=C1CCCC(=O)N1CC(O)CN1CCN(c2ccccc2OCC(F)(F)F)CC1 (centres unmarked) [Compound No. 39, 1-[4-{2-(2,2,2-Trifluoroethoxy)phenyl)piperazin-1-yl]-2-hydroxy-3-(2,6-dioxopiperidin-1-yl)propane hydrochloride]",6.9 nM,200,1380 nM,–
CC(C)Oc1ccccc1N1CCN(CCCN2C(=O)C3CC=CCC3C2=O)CC1=O (centres unmarked) [Compound No. 54],7290 nM,>2,> 15000 nM,–
"CC(C)Oc1ccccc1N1CCN(CCCN2C(=O)[C@@H]3[C@H](C2=O)[C@H]2C=C[C@@H]3O2)CC1 [Compound No. 61, 2-[3-{4-(2-Isopropoxyphenyl)piperazin-1-yl}-propyl]-exo-4,7-epoxy-3a,4,7,7a-tetrahydro-1H-isoindole-1,3(2H)-dione hydrochloride]",0.93 nM,31,29 nM,–
CC(C)Oc1ccccc1N(CCO)CCN(CCO)CCCN1C(=O)C2CC=CCC2C1=O (centres unmarked) [Compound No. 51],662 nM,>23,> 15000 nM,–
"COc1ccccc1[N+]1([O-])CCN(CCCN2C(=O)CCCC2=O)CC1 [Compound No. 55, 1-[4-(2-Methoxyphenyl)piperazin-1-yl-4-N-oxide]-3-(2,6-dioxopiperidin-1-yl]propane]",72 nM,51,3640 nM,–
"CC(=O)Nc1ccc(N2CCN(CCCN3C(=O)C4CC=CCC4C3=O)CC2)c(OC(C)C)c1.Cl (centres unmarked) [Compound No. 58, 2-[3-{4-(2-Isopropoxy-4-acetylaminophenyl)piperazin-1-yl}propyl]-3a,4,7,7a-tetrahydro-1H-isoindole-1,3(2H)-dione hydrochloride]",160 nM,10,> 1000 nM,–
"CC(C)Oc1ccccc1NCCN(CC=O)CCCN1C(=O)C2CC=CCC2C1=O (centres unmarked) [Compound No. 50, 2-[N-{N′-(2-Isopropoxyphenyl)aminoethyl}acetaldehyde-aminopropyl]-3a,4,7,7a-tetrahydro-1H-isoindole-1,3(2H)-dione]",47 nM,>21,> 1000 nM,–
"CCOc1ccccc1N1CCN(CCCN2C(=O)C3CC(O)C(Cl)CC3C2=O)CC1.Cl (centres unmarked) [Compound No. 17, hydrochloride]",1.6 nM,–,80 nM,–
"Cl.O=C1C2CC=CCC2C(=O)N1CC(O)CN1CCN(c2ccccc2O)CC1 (centres unmarked) [Compound No. 14, 2-[3-{4-(2-Hydroxyphenyl)piperazin-1-yl}-2-hydroxypropyl]-3a,4,7,7a-tetrahydro-1H-isoindole-1,3(2H)-dione hydrochloride]",49 nM,10,504 nM,–
"O=C1C2CC=CCC2C(=O)N1CCC[N+]1([O-])CCN(c2ccccc2O)CC1 (centres unmarked) [Compound No. 22, 2-[3-{4-(2-Hydroxyphenyl)piperazin-1-yl, 1-N-oxide}propyl]-3a,4,7,7a-tetrahydro-1H-isoindole-1,3(2H)-dione]",1590 nM,0.7,1090 nM,–
"CC(=O)N(CCCN1C(=O)C2CC=CCC2C1=O)CCNc1ccccc1OC(C)C.Cl (centres unmarked) [Compound No. 46, 2-[N-{N′-(2-Isopropoxyphenyl)aminoethyl}acetylaminopropyl]-3a,4,7,7a-tetrahydro-1H-isoindole-1,3(2H)-dione hydrochloride]",379 nM,>3,> 1000 nM,–
"CC(C)Oc1ccccc1N1CCN(C(=O)CCN2C(=O)CCCC2=O)CC1.Cl [Compound No. 49, 1-[4(2-Isopropoxyphenyl)piperazin-1-yl]-1-oxo-3-(2,6-dioxopiperidin-1-yl)propane hydrochloride]",> 1000 nM,1,> 1000 nM,–
"CCOc1ccccc1N1CCN(CCN2C(=O)C3CC=CCC3C2=O)CC1.Cl (centres unmarked) [Compound No. 15, 2-[2-{4-(2-Ethoxyphenyl)piperazin-1-yl}ethyl]-3a,4,7,7a-tetrahydro-1H-isoindole-1,3(2H)-dione hydrochloride]",35 nM,10,346 nM,–
"CC(C)Oc1ccccc1N1CCN(CCC(=O)N2C(=O)C3CCCCC3C2=O)CC1.Cl (centres unmarked) [Compound No. 63, 2-[3-{4-(2-Isopropoxyphenyl)piperazin-1-yl}-1-oxo-propyl]-3a,4,5,6,7,7a-hexahydro-1H-isoindole-1,3(2H)-dione hydrochloride]",> 100 nM,>10,> 1000 nM,–
"CC(C)Oc1ccccc1N1CCN(CCC(=O)N2C(=O)C3CC=CCC3C2=O)CC1.Cl (centres unmarked) [Compound No. 62, 2-[3-{4-(2-Isopropoxyphenyl)piperazin-1-yl}-1-oxo-propyl]-3a,4,7,7a-tetrahydro-1H-isoindole-1,3(2H)-dione hydrochloride]",> 1000 nM,1,> 1000 nM,–

# Other lines, results leading:
Ki [1],α1B/α1A [1],Ki [2],α1B/α1A ([1]; hydrochloride),Compound
202 nM,>74,> 15000 nM,–,"CCN(CCCN1C(=O)C2CC=CCC2C1=O)CCNc1ccccc1OC(C)C (centres unmarked) [Compound No. 74, 2-[N-{N′-(2-Isopropoxyphenyl)aminoethyl}ethylaminopropyl]-3a,4,7,7a-tetrahydro-1H-isoindole-1,3(2H)-dione]"
5.2 nM,–,167 nM,32,"CCOc1ccccc1N1CCN(CCCN2C(=O)C3CC(O)C(O)CC3C2=O)CC1 (centres unmarked) [Compound No. 66, hydrochloride]"
0.54 nM,263,142 nM,–,"CC(C)Oc1ccccc1N1CCN(CCCN2C(=O)C3C(O)C=CC(O)C3C2=O)CC1 (centres unmarked) [Compound No. 72, 2-[3-{4-(2-Isopropoxyphenyl)piperazin-1-yl}propyl]-4,7-dihydroxy-3a,4,7,7a-tetrahydro-1H-isoindole-1,3(2H)-dione]"
485 nM,1.9,916 nM,–,"CC(C)Oc1ccccc1N1CCN(CCCN2C(=O)C3C(c4ccccc4)C=CC(c4ccccc4)C3C2=O)CC1 (centres unmarked) [Compound No. 77, 2-[3-{4-(2-Isopropoxyphenyl)piperazin-1-yllpropyl]-4,7-diphenyl-3a,4,7,7a-tetrahydro-1H-isoindole-1,3(2H)-dione hydrochloride]"
189 nM,>53,> 10000 nM,–,"CC(C)Oc1ccccc1N1CCN(CCCN2C(=O)C3CC=CCC3C2=O)C1=O (centres unmarked) [Compound No. 67, 2-[3-{3-(2-Isopropoxyphenyl)imidazolidon-1-yl}propyl]-3a,4,7,7a-tetrahydro-1H-isoindole-1,3(2H)-dione]"
229 nM,>44,> 10000 nM,–,"CC(C)Oc1ccccc1N(CCO)CCNCCCN1C(=O)C2CC=CCC2C1=O (stereo not drawn) [Compound No. 68, 2-[N-{N′-(2-Isopropoxyphenyl)aminoethyl}aminopropyl-N′-(β-hydroxyethyl]-3a,4,7,7a-tetrahydro-1H-isoindole-1,3(2H)-dione hydrochloride]"
28.5 nM,31,870 nM,–,"CC(C)Oc1ccccc1[N+]1([O-])CCN(CCCN2C(=O)C3CC=CCC3C2=O)CC1 (centres unmarked) [Compound No. 64, 2-[3-{4-(2-Isopropoxyphenyl)piperazin-1-yl,4-N-oxide}propyl]-3a,4,7,7a-tetrahydro-1H-isoindole-1,3(2H)-dione]"
